Measured values from EPA's ToxRefDB 2.

Experiments:
rat [1] = conditions: Fertility (Segment I); sprague dawley; Oral; Gavage/Intubation; dose end: 1 generation; group: parental; systemic / in life observation / body weight / body weight + systemic / in life observation / clinical signs / salivation + systemic / in …
rat [2] = conditions: Prenatal developmental toxicity study, sprague dawley, Oral, Gavage/Intubation, dose end: 18 GD
mouse [3] = conditions: Subchronic oral toxicity in rodents, Feed, dose end: 92 day, group: systemic
dog [4] = conditions: Sub-acute repeat dose toxicity, beagle, Oral, Gavage/Intubation, dose end: 8 day, group: systemic
rat [5] = conditions: Sub-acute repeat dose toxicity; Oral; Gavage/Intubation; dose end: 38 day; group: systemic; systemic / clinical chemistry / albumin / albumin + systemic / clinical chemistry / creatinine / creatinine + systemic / clinical chemistry…
rabbit [6] = conditions: Sub-acute repeat dose toxicity; new zealand white; Oral; Gavage/Intubation; dose end: 5 day; group: systemic; systemic / in life observation / food consumption / food consumption
mouse [7] = conditions: Sub-acute repeat dose toxicity, Oral, Feed, dose end: 15 day, group: systemic
rat [8] = conditions: Subchronic oral toxicity in rodents, sprague dawley, Feed, dose end: 92 day, group: systemic
rat [9] = conditions: Sub-acute repeat dose toxicity; Oral; Gavage/Intubation; dose end: 14 day; group: systemic; systemic / in life observation / body weight / body weight gain + systemic / in life observation / clinical signs / reduced activity + …
rat [10] = conditions: Sub-acute repeat dose toxicity; Oral; Gavage/Intubation; dose end: 19 day; group: systemic; systemic / in life observation / body weight / body weight + systemic / in life observation / clinical signs / salivation
rat [11] = conditions: Sub-acute repeat dose toxicity, sprague dawley, Oral, Feed, dose end: 15 day, group: systemic
rat [12] = conditions: Fertility (Segment I); sprague dawley; Oral; Gavage/Intubation; dose end: 1 generation; group: parental; systemic / in life observation / body weight / body weight + systemic / in life observation / clinical signs / salivation + systemic / in …; remark: listed apart in the source
dog [13] = conditions: Subchronic oral toxicity in nonrodent, beagle, Gavage/Intubation, dose end: 98 day, group: systemic
rat [14] = conditions: Subchronic oral toxicity in rodents, sprague dawley, Gavage/Intubation, dose end: 90 day, group: systemic, systemic / clinical chemistry / calcium / calcium + systemic / clinical chemistry / cholesterol / cholesterol + systemic / clinical …
rabbit [15] = conditions: Prenatal developmental toxicity study, new zealand white, Oral, Gavage/Intubation, dose end: 19 GD, group: maternal
rabbit [16] = conditions: Sub-acute repeat dose toxicity, new zealand white, Oral, Gavage/Intubation, dose end: 13 day
rat [17] = conditions: Peri- and post-natal toxicity study (Segment III), Oral, Gavage/Intubation, dose end: 1 generation
dog [18] = conditions: Subchronic oral toxicity in nonrodent, beagle, Feed, dose end: 90 day, group: systemic
dog [19] = conditions: Chronic toxicity, beagle, Oral, Feed, dose end: 52 week, group: systemic
rat [20] = conditions: Subchronic oral toxicity in rodents, sprague dawley, Feed, dose end: 90 day, group: systemic
rat [21] = conditions: Combined chronic toxicity/carcinogenicity; other; Oral; Feed; dose end: 102 week; group: systemic; systemic / pathology microscopic / kidney / degeneration + systemic / pathology microscopic / kidney / dilatation + systemic / pathology …
mouse [22] = conditions: Carcinogenicity, cd1, Oral, Feed, dose end: 19 month, group: systemic
rat [23] = conditions: Subchronic oral toxicity in rodents, sprague dawley, Feed, dose end: 13 week, group: systemic, systemic / clinical chemistry / urea nitrogen / urea nitrogen + systemic / clinical chemistry / creatinine / creatinine + systemic / …
[24] = group: developmental, developmental / developmental malformation / bone / [other] + systemic / in life observation / body weight / fetal weight
[25] = group: maternal, systemic / in life observation / body weight / body weight + systemic / in life observation / clinical signs / salivation + systemic / in …
[26] = systemic / clinical chemistry / cholesterol / cholesterol + systemic / in life observation / body weight / body weight + systemic / clinical…
[27] = systemic / hematology / lymphocyte / lymphocyte
[28] = systemic / hematology / leukocyte (wbc) count differential / leukocyte (wbc) + systemic / in life observation / clinical signs / abnormal …
[29] = systemic / in life observation / clinical signs / abnormal feces + systemic / in life observation / clinical signs / salivation
[30] = systemic / in life observation / body weight / body weight + systemic / in life observation / clinical signs / hunched posture + systemic / …
[31] = systemic / in life observation / body weight / body weight
[32] = systemic / in life observation / body weight / body weight + systemic / in life observation / clinical signs / lacrimation or red-colored …
[33] = systemic / in life observation / body weight / body weight + systemic / in life observation / clinical signs / alopecia + systemic / in life…
[34] = systemic / in life observation / clinical signs / salivation
[35] = systemic / in life observation / clinical signs / salivation + systemic / in life observation / clinical signs / emesis
[36] = systemic / in life observation / food consumption / food consumption
[37] = systemic / in life observation / food consumption / food consumption + reproductive / reproductive performance / aborted / aborted + …
[38] = group: maternal, reproductive / reproductive performance / aborted / aborted
[39] = group: systemic, systemic / in life observation / body weight / body weight gain + systemic / in life observation / food consumption / food consumption
[40] = group: systemic, systemic / in life observation / body weight / body weight gain + systemic / in life observation / food consumption / food consumption + …
[41] = group: developmental, developmental / developmental landmark / eye opening / eye opening
[42] = group: parental, systemic / in life observation / body weight / body weight + systemic / in life observation / body weight / body weight gain + systemic / in…
[43] = systemic / organ weight / ovary / absolute + systemic / organ weight / ovary / relative to body weight + systemic / organ weight / ovary / …
[44] = systemic / in life observation / body weight / body weight gain + systemic / clinical chemistry / alkaline phosphatase (alp/alk) / alkaline …

For `CS(=O)(=O)O.Cc1nccn1-c1ccc(Sc2cccc(C3(C(N)=O)CCOCC3)c2)cc1`, the LEL (rat [1]) was 50 mg/kg/day, the LOAEL (rat [1]) was > 50 mg/kg/day and the NEL (rat [1]) was 15 mg/kg/day. The NOAEL (rat [1]) was ≥ 50 mg/kg/day, the LEL (rat [2]; [24]) was 50 mg/kg/day and the LOAEL (rat [2]; [24]) was > 50 mg/kg/day. For the same compound, the NOAEL (rat [2]; [24]) was ≥ 50 mg/kg/day, the LOAEL (rat [2]; [25]) was > 50 mg/kg/day and the NEL (rat [2]; [25]) was 5 mg/kg/day. The NOAEL (rat [2]; [25]) was ≥ 50 mg/kg/day, the LEL (rat [2]; group: maternal, systemic / in life observation / body weight / body weight + systemic / in life observation / food consumption / food consumption) was 15 mg/kg/day and the LOAEL (mouse [3]; [26]) was > 600 mg/kg/day. The NOAEL (mouse [3]; [26]) was ≥ 600 mg/kg/day, the LEL (mouse [3]; [27]) was 30 mg/kg/day and the NEL (mouse [3]; [27]) was < 30 mg/kg/day. The LOAEL (dog [4]; [28]) was > 60 mg/kg/day, the NOAEL (dog [4]; [28]) was ≥ 60 mg/kg/day and the LEL (dog [4]; [29]) was 3 mg/kg/day. For the same compound, the NEL (dog [4]; [29]) was < 3 mg/kg/day, the LEL (rat [5]) was 250 mg/kg/day and the LOAEL (rat [5]) was > 250 mg/kg/day. For the same compound, the NEL (rat [5]) was < 250 mg/kg/day, the NOAEL (rat [5]) was ≥ 250 mg/kg/day and the LEL (rabbit [6]) was 10 mg/kg/day. For the same compound, the LOAEL (rabbit [6]) was > 100 mg/kg/day, the NEL (rabbit [6]) was < 10 mg/kg/day and the NOAEL (rabbit [6]) was ≥ 100 mg/kg/day. For the same compound, the LOAEL (mouse [7]; [30]) was > 1200 mg/kg/day, the NOAEL (mouse [7]; [30]) was ≥ 1200 mg/kg/day and the LEL (mouse [7]; systemic / in life observation / body weight / body weight + systemic / in life observation / food consumption / food consumption + systemic…) was 600 mg/kg/day. The LEL (rat [8]; [31]) was 10 mg/kg/day, the NEL (rat [8]; [31]) was < 10 mg/kg/day and the LOAEL (rat [8]; [32]) was > 100 mg/kg/day. The NOAEL (rat [8]; [32]) was ≥ 100 mg/kg/day, the LEL (rat [9]) was 200 mg/kg/day and the LOAEL (rat [9]) was > 200 mg/kg/day. For the same compound, the NEL (rat [9]) was < 200 mg/kg/day, the NOAEL (rat [9]) was ≥ 200 mg/kg/day and the LEL (rat [10]) was 100 mg/kg/day. The LOAEL (rat [10]) was > 100 mg/kg/day, the NEL (rat [10]) was < 100 mg/kg/day and the NOAEL (rat [10]) was ≥ 100 mg/kg/day. The LOAEL (rat [11]; [33]) was > 600 mg/kg/day, the NEL (rat [11]; [33]) was 30 mg/kg/day and the NOAEL (rat [11]; [33]) was ≥ 600 mg/kg/day. The LEL (rat [11]; systemic / in life observation / body weight / body weight + systemic / in life observation / food consumption / food consumption) was 100 mg/kg/day, the LEL (rat [12]) was 50 mg/kg/day and the LOAEL (rat [12]) was > 50 mg/kg/day. The NEL (rat [12]) was 15 mg/kg/day, the NOAEL (rat [12]) was ≥ 50 mg/kg/day and the LEL (dog [13]; [34]) was 3 mg/kg/day. The NEL (dog [13]; [34]) was < 3 mg/kg/day, the LOAEL (dog [13]; [35]) was > 30 mg/kg/day and the NOAEL (dog [13]; [35]) was ≥ 30 mg/kg/day. For the same compound, the LEL (rat [14]) was 20 mg/kg/day, the LOAEL (rat [14]) was > 150 mg/kg/day and the NEL (rat [14]) was 5 mg/kg/day. The NOAEL (rat [14]) was ≥ 150 mg/kg/day, the LEL (rabbit [15]; [36]) was 2 mg/kg/day and the NEL (rabbit [15]; [36]) was < 2 mg/kg/day. For the same compound, the LOAEL (rabbit [15]; [37]) was > 25 mg/kg/day, the NOAEL (rabbit [15]; [37]) was ≥ 25 mg/kg/day and the LEL (rabbit [16]; [38]) was 50 mg/kg/day. For the same compound, the LOAEL (rabbit [16]; [38]) was > 200 mg/kg/day, the NEL (rabbit [16]; [38]) was 10 mg/kg/day and the NOAEL (rabbit [16]; [38]) was ≥ 200 mg/kg/day. The LEL (rabbit [16]; [39]) was 10 mg/kg/day, the NEL (rabbit [16]; [39]) was < 10 mg/kg/day and the LOAEL (rabbit [16]; [40]) was > 200 mg/kg/day. For the same compound, the NOAEL (rabbit [16]; [40]) was ≥ 200 mg/kg/day, the LEL (rat [17]; [41]) was 50 mg/kg/day and the LOAEL (rat [17]; [41]) was > 50 mg/kg/day. The NOAEL (rat [17]; [41]) was ≥ 50 mg/kg/day, the LEL (rat [17]; [42]) was 15 mg/kg/day and the LOAEL (rat [17]; [42]) was > 50 mg/kg/day. For the same compound, the NEL (rat [17]; [42]) was 5 mg/kg/day and the NOAEL (rat [17]; [42]) was ≥ 50 mg/kg/day.

`CC1=C(C(=O)Nc2ccccc2)SCCO1` [Carboxin] was tested, and the LOAEL (dog [18]; [43]) was 17.7 mg/kg/day, the NEL (dog [18]; [43]) was 5.9 mg/kg/day and the NOAEL (dog [18]; [43]) was 9 mg/kg/day. It also gave an LEL (dog [18]; systemic / pathology microscopic / parathyroid gland / cyst + systemic / pathology microscopic / pituitary gland / cyst) of 9 mg/kg/day, an LOAEL (dog [19]; systemic / in life observation / body weight / body weight gain) of 15 mg/kg/day and an NEL (dog [19]; [44]) of 1.3 mg/kg/day. It also gave an NOAEL (dog [19]; [44]) of 1.3 mg/kg/day, an LEL (dog [19]; systemic / in life observation / body weight / body weight gain + systemic / hematology / mean corpuscular (cell) volume (mcv) / mean …) of 15 mg/kg/day and an LOAEL (rat [20]; systemic / pathology microscopic / kidney / nephropathy) of 10.5 mg/kg/day. The NOAEL (rat [20]; systemic / pathology microscopic / kidney / nephropathy + systemic / in life observation / clinical signs / defecation) was 5.5 mg/kg/day, the LEL (rat [21]) was 9 mg/kg/day and the LOAEL (rat [21]) was 9 mg/kg/day. For the same compound, the NEL (rat [21]) was 0.8 mg/kg/day, the NOAEL (rat [21]) was 0.8 mg/kg/day and the LOAEL (mouse [22]; systemic / in life observation / mortality / mortality) was 451 mg/kg/day. For the same compound, the NOAEL (mouse [22]; systemic / in life observation / mortality / mortality + systemic / pathology microscopic / liver / hypertrophy) was 9 mg/kg/day, the LEL (mouse [22]; systemic / pathology microscopic / liver / hypertrophy) was 385 mg/kg/day and the NEL (mouse [22]; systemic / pathology microscopic / liver / hypertrophy + systemic / pathology microscopic / lung / adenoma) was 8 mg/kg/day. The LEL (rat [23]) was 10 mg/kg/day, the LOAEL (rat [23]) was 10 mg/kg/day and the NEL (rat [23]) was < 10 mg/kg/day. For the same compound, the NOAEL (rat [23]) was < 10 mg/kg/day.
